Values after ≈ are worked out from the molar mass of the structure shown.
Assays:
[1] = test system: dehydrogenase (cell-free extract); assay: Amount of dehydrogenation of each substrate by enzyme (change in absorbance at 600 nm due to coenzyme); assay type: biochemical, Streptomyces albulus KO23; details: relative value of change in absorbance at 600 nm, CFL set to 100; substrate 0.5 mM, 37° C.
[2] = test system: cleavage division of Temnopleurus toreumaticus; assay: Inhibition test for cell division (cleavage division); assay type: in vivo; details: observed one hour after fertilization; * = no activity at the indicated concentration
Description: (§1) Physiological activity of each dehydrodiketopiperazine will be described below. Each dehydrodiketopiperazine was tested for its inhibitory activity against cleavage division of Hemicentrotus pulcherrimus, Scaphechinus mirabilis and Temnopleurus toreumaticus as a cell division inhibitory activity. The test was carried out as described in The Journal of Antibiotics, Vol. 52, p. 1017 (1999). However, stages at which the first cleavage division occurs vary among sea urchins, so that inhibition of the cleavage division was observed after 4 hours of fertilization in the tests using Hemicentrotus pulcherrimus and Scaphechinus mirabilis, and after one hour of fertilization in the test using Temnopleurus toreumaticus, respectively.

[3] = test system: cleavage division of Scaphechinus mirabilis; assay: as above; assay type: in vivo; details: observed 4 hours after fertilization; * = no activity at the indicated concentration
Description: as §1

[4] = test system: cleavage division of Hemicentrotus pulcherrimus; assay: as above; assay type: in vivo; details: observed 4 hours after fertilization; * = no activity at the indicated concentration
Description: as §1

[5] = test system: sea urchin embryo division; details: Kanzaki et al. 1999; cited from earlier work
[6] = test system: cancer cell transplanted model animal; details: cited from earlier work
[7] = test system: tumor; details: cited from earlier work
[8] = test system: tubulin; details: cited from earlier work
[9] = test system: pronuclear fusion; details: Kobayashi et al. 1989; cited from earlier work
[10] = test system: bacteria; details: Fukushima et al. 1973; cited from earlier work
[11] = test system: cleavage division of Hemicentrotus pulcherrimus, Scaphechinus mirabilis and Temnopleurus toreumaticus; assay: Comparison of cell division inhibitory activity across the sea urchin tests; assay type: in vivo, sea urchins; details: ratio of MIC values
Description: as §1

Row | Structure (SMILES) | Amount of dehydrogenation [1] | MIC Temnopleurus toreumaticus [2] | MIC Scaphechinus mirabilis [3] | MIC Hemicentrotus pulcherrimus [4] | other results
1 | CC(C)CC1NC(=O)C(Cc2ccc(O)cc2)NC1=O (centres unmarked) [CLY] | 14 |  |  |  | 
2 | CC(C)C[C@@H]1NC(=O)[C@H](Cc2ccccc2)NC1=O [CFL] | 100 |  |  |  | 
3 | C=CC(C)(C)c1[nH]cnc1/C=c1\[nH]c(=O)/c(=C/c2ccccc2)[nH]c1=O [dehydrophenylahistin, (Z, Z)-dehydrophenylahistin] |  | 0.0061 µg/mL (≈ 0.0175 µM) | 0.0061 µg/mL (≈ 0.0175 µM) | 0.00038 µg/mL (≈ 0.00109 µM) | 
4 | O=c1[nH]c(=Cc2ccccc2)c(=O)[nH]c1=Cc1ccccc1 [tetradehydrocyclo (Phe-Phe)] |  |  |  |  | sea urchin embryo division inhibitory activity [5]: exhibits sea urchin embryo division inhibitory activity
5 | O=C(O)CCC1NC(=O)C(CCC(=O)O)NC1=O (centres unmarked) [CEE] | 14 |  |  |  | 
6 | O=C1N[C@@H](Cc2c[nH]cn2)C(=O)N[C@H]1Cc1ccccc1 [CFH, cyclophenylalanylhistidyl] | 44 | >25* μg/ml | >25* μg/ml | >25* μg/ml | 
7 | CSCCC1NC(=O)C(CCSC)NC1=O (centres unmarked) [CMM] | 27 |  |  |  | 
8 | C=CC(C)(C)c1[nH]cnc1C=C1NC(=O)C(Cc2ccccc2)NC1=O (single isomer, unassigned; (-)) [(−)-phenylahistin, 3-{[5-(1,1-dimethyl-2-propenyl)imidazole-4-yl]methylene}-6-benzylpiperazine-2,5-dione] |  | 0.2 µg/mL (≈ 0.571 µM) | 1.6 µg/mL (≈ 4.57 µM) | 0.39 µg/mL (≈ 1.11 µM) | antitumor effect [6]: a certain degree of antitumor activity; antitumor activity relative to (+)-phenylahistin ([7]; times stronger than (+)-phenylahistin, approx.): 30-100 times; inhibition of the polymerization of tubulin [8]: inhibits the polymerization of tubulin
9 | CC(C)/C=c1\[nH]c(=O)/c(=C/c2ccccc2)[nH]c1=O [albonoursin, 3-(Z)-benzylidene-6-(Z)isobutylidene-2,5-piperazine dione] |  | >25* μg/ml | >13* μg/ml | 6.3 µg/mL (≈ 24.6 µM) | antitumor activity ([7]; Fukushima et al. 1973): has an antitumor activity; inhibition of pronuclear fusion [9]: acts to inhibit the pronuclear fusion; antibacterial activity [10]: antibacterial activity
10 | C=CC(C)(C)c1[nH]cnc1C=C1NC(=O)C(Cc2ccccc2)NC1=O (single isomer, unassigned; (+)) [(+)-phenylahistin, 3-{[5-(1,1-dimethyl-2-propenyl)imidazole-4-yl]methylene}-6-benzylpiperazine-2,5-dione] |  | 6.3 µg/mL (≈ 18 µM) | >13* μg/ml | 13 µg/mL (≈ 37.1 µM) | 
11 | O=c1[nH]/c(=C\c2c[nH]cn2)c(=O)[nH]/c1=C\c1ccccc1 [(Z,Z)-tetradehydro-CFH, Z-tetradehydrocyclophenylalanylhistidyl] |  | 1.6 µg/mL (≈ 5.71 µM) | 1.6 µg/mL (≈ 5.71 µM) | 0.78 µg/mL (≈ 2.78 µM) | inhibitory activity compared with CFH [11]: ≥ 15 fold
12 | O=C(O)CC1NC(=O)C(CC(=O)O)NC1=O (centres unmarked) [CDD] | 14 |  |  |  | 
